Source: article PMC9785202, “Changes in Disposition of Ezetimibe and Its Active Metabolites Induced by Impaired Hepatic Function: The Influence of Enzyme and Transporter Activities” (Pharmaceutics, 2022)
Read-outs that look alike come from different tables or passages of the source.

Assays:
[1] = Pharmacokinetics after intravenous or oral administration of 10 mg/kg EZE to control and CCl4-induced rats; type: in vivo; conditions: for AUC(0-t) / half-life / Cmax at 5 min / Cmax / Tmax: Sprague-Dawley, rat, plasma, 10 mg/kg; for Cmax at 5 min: read-out: Cmax (* plasma concentration at 5 min after intravenous injection)
Protocol: Animals were fasted for 12 h with free access to water before the experiments. EZE was administered orally (prepared in 0.5% carboxymethylcellulose sodium) or intravenously (dissolved in 10% dimethyl sulfoxide, 10% tween-80, and 80% sterile H2O) to CCl4-induced rats (n = 5) and control rats (n = 5) at 10 mg/kg. Blood samples were collected from the retro-orbital venous plexus before administration (0 h), at 5, 15, and 30 min, and at 1, 2, 4, 6, 8, 12, 24, and 48 h after administration in tubes containing EDTA-2K. Plasma samples were harvested by centrifugation at 11,600 g for 5 min at 4 °C and then stored at −80 °C until further analysis.
(§1) A 25.0 μL aliquot of each sample and 25.0 μL of internal standard (50.0 ng/mL EZE-d4) were mixed with 100 μL of acetonitrile. After the samples were vortexed and centrifugated at 2250 g for 15 min, the supernatants were used to measure EZE and its metabolites by LC-MS/MS.
(§2) WinNonlin version 6.1 (Pharsight Corp., Cary, NC, USA) was used to calculate the pharmacokinetic parameters in a non-compartmental model. Statistical comparisons between the two groups were evaluated using a Student’s two-tailed unpaired t-test or the nonparametric Mann–Whitney test in GraphPad Prism (version 8.0, GraphPad Software Inc, SanDiego, CA, USA). A value of p < 0.05 was considered significant. All data were presented as the mean ± S.D. (n ≥ 3).

[2] = Portal vein and femoral vein plasma pharmacokinetics after oral EZE; type: in vivo, rats; conditions: oral 10 mg/kg EZE; for AUC(0-t): Sprague-Dawley, rat, po, 10 mg/kg
Protocol: To investigate changes due to the first-pass metabolism and biliary excretion during liver disease, CCl4-induced rats (n = 5) and control rats (n = 5) were anesthetized and the hepatic portal and femoral veins were cannulated with PE-50 polyethylene tubing. EZE was orally administered to rats at 10 mg/kg. Blood samples were collected simultaneously from the hepatic portal and femoral veins before administration (0 h), at 5, 15, and 30 min, and at 1, 2, 4, 6, 8, 12, 24, and 48 h after administration. Plasma samples were harvested as previously described.
as §1, §2

UGTs = assay: Incubation of EZE with liver S9 fractions of control and CCl4-induced rats (glucuronidation); type: in vitro ADME, rat; conditions: 60 min
Protocol: One portion of the rat liver tissue was homogenized in a 5-fold volume of ice-cold phosphate buffer (including 250 mM sucrose, 10 mM Tris-HCl, and 1 mM EDTA-2Na, pH 7.4) and centrifugated at 9000 g for 20 min. After centrifugation, the supernatant was collected as the S9 fraction and stored at −80 °C.
To evaluate the effect of hepatic impairment on the hepatic metabolism of EZE, 0.3 μM, 3 μM, and 30 μM EZE were incubated with rat liver S9 fractions (2 mg of protein/mL) at 37 °C for 60 min in the Tris-HCl-buffered system (100 mM, pH 7.4), consisting of UDPGA (1 mM), MgCl2 (10 mM), and alamethicin (25 μg/mL). To investigate the effect of bile acids on the metabolism of EZE in the liver, 3 μM EZE was incubated with rat or human liver S9 fractions (2 mg of protein/mL) at 37 °C for 60 min in the Tris-HCl-buffered system with or without bile acids at 1, 10, and 100 μM. The total volume of the incubation system was 100 μL. The reactions were terminated by adding 100 μL of ice-cold acetonitrile. Samples were stored at −20 °C until analysis. EZE and EZE-Ph were detected by liquid chromatography with tandem mass spectrometry (LC-MS/MS).

rat primary hepatocytes = assay: Uptake of EZE and EZE-Ph by rat primary hepatocytes; type: in vitro ADME; conditions: 10 μM, 10 min, 37 °C vs 4 °C
Protocol: Rat primary hepatocytes were isolated from male SD rats as previously described [34]. Fresh rat hepatocytes (120,000 per well) were cultured in Williams’ E medium (containing 0.1 μM dexamethasone, 5% fetal bovine serum, 1% penicillin G/streptomycin, 1% GlutaMAX-I, and 1% insulin–transferrin–selenium) on collagen I-coated 48-well plates. Rat hepatocytes cultured for 4 h under a carbogen atmosphere were directly used for uptake assays.
The hepatocytes were rinsed three times with HBSS (37 °C) and equilibrated in HBSS for 10 min. […] After 10 min of incubation, cells were quickly washed three times with ice-cold HBSS and then lysed by the addition of 300 μL of purified water. The protein content was measured using the BCA protein assay kit. EZE and EZE-Ph were analyzed by LC-MS/MS.
The rates of substrate uptake were normalized using the protein contents of cell lysates.

MDR1 = molecular target: T1, MDR1 (Homo sapiens, UniProt P08183); assay: Transport study with MDR1-expressing membrane vesicles; type: in vitro ADME; conditions: 10 μM, 10 min
T1 construct: purchased GenoMembrane Co., Ltd. (Yokohama, Japan); host or cells: Sf9 insect cells
Protocol: (§3) Human MDR1-, MRP2-, and MRP3-expressing membrane vesicles isolated from Sf9 insect cells were sourced from GenoMembrane Co., Ltd. (Yokohama, Japan).
(§4) In transport studies, a modified rapid filtration technique was used according to the manufacturer’s protocol (GenoMembrane Co.). The uptake of test compounds (10 μM EZE or EZE-Ph) into membrane vesicles (100 μg protein/100 μL) was conducted with or without 4 mM ATP in the transport medium (50 μL, pH 7.4), which included 50 mM MOPS-Tris, 70 mM KCl, and 7.5 mM MgCl2. The vesicular transport was terminated after 10 min by adding 200 μL of ice-cold stop buffer containing 40 mM MOPS-Tris and 70 mM KCl. The stopped incubate was quickly transferred to a 96-well glass fiber filter plate (Millipore, MA, USA) and washed five times with ice-cold stop buffer. The EZE and EZE-Ph inside the vesicles were released by adding 200 μL of methanol–water (70:30, v/v) and analyzed by LC-MS/MS. The ATP-dependent transport was evaluated based on the ratio of transport with ATP to that without ATP.

MRP2 = molecular target: T2, MRP2 (Homo sapiens, UniProt Q92887); assay: Transport study with MRP2-expressing membrane vesicles; type: in vitro ADME; conditions: 10 μM, 10 min
T2 construct: purchased GenoMembrane Co., Ltd. (Yokohama, Japan); host or cells: Sf9 insect cells
Protocol: as §3, §4

MRP3 = molecular target: T3, MRP3 (Homo sapiens, UniProt O15438); assay: Transport study with MRP3-expressing membrane vesicles; type: in vitro ADME; conditions: 10 μM, 10 min
T3 construct: purchased GenoMembrane Co., Ltd. (Yokohama, Japan); host or cells: Sf9 insect cells
Protocol: as §3, §4

[3] = for Autosampler stability (4°C, 24 h), RE / Post-extraction stability (room temperature 3 h), RE / Freeze-thaw stability (−20°C, three cycles), RE / Short-term stability (room temperature 3 h), RE: n = 6; for Freeze-thaw stability (−20°C, three cycles), RE / Short-term stability (room temperature 3 h), RE: rat plasma
Protocol: The instrument parameters were as follows: ion spray voltage, −4500 V; source temperature, 550 °C; nebulizer gas, 60 psi; heater gas, 60 psi; and curtain gas, 40 psi. […] Data were acquired and processed with the Analyst 1.6.3 software (Applied Biosystems). The standard curve ranges were 1.00 to 1000 ng/mL for EZE, 3.00 to 3000 ng/mL for EZE-Ph, and 1.00 to 1000 ng/mL for EZE-Hy in plasma.
Summary of the stability of ezetimibe and its metabolites in rat plasma (n = 6).

[4] = iv, i.v. 10 mg/kg EZE, CCl4-induced rats
[5] = iv, i.v. 10 mg/kg EZE, control rats
[6] = po, p.o. 10 mg/kg EZE, CCl4-induced rats
[7] = po, p.o. 10 mg/kg EZE, control rats
[8] = oral administration of 10 mg/kg EZE

T3 sequence (O15438 whole entry): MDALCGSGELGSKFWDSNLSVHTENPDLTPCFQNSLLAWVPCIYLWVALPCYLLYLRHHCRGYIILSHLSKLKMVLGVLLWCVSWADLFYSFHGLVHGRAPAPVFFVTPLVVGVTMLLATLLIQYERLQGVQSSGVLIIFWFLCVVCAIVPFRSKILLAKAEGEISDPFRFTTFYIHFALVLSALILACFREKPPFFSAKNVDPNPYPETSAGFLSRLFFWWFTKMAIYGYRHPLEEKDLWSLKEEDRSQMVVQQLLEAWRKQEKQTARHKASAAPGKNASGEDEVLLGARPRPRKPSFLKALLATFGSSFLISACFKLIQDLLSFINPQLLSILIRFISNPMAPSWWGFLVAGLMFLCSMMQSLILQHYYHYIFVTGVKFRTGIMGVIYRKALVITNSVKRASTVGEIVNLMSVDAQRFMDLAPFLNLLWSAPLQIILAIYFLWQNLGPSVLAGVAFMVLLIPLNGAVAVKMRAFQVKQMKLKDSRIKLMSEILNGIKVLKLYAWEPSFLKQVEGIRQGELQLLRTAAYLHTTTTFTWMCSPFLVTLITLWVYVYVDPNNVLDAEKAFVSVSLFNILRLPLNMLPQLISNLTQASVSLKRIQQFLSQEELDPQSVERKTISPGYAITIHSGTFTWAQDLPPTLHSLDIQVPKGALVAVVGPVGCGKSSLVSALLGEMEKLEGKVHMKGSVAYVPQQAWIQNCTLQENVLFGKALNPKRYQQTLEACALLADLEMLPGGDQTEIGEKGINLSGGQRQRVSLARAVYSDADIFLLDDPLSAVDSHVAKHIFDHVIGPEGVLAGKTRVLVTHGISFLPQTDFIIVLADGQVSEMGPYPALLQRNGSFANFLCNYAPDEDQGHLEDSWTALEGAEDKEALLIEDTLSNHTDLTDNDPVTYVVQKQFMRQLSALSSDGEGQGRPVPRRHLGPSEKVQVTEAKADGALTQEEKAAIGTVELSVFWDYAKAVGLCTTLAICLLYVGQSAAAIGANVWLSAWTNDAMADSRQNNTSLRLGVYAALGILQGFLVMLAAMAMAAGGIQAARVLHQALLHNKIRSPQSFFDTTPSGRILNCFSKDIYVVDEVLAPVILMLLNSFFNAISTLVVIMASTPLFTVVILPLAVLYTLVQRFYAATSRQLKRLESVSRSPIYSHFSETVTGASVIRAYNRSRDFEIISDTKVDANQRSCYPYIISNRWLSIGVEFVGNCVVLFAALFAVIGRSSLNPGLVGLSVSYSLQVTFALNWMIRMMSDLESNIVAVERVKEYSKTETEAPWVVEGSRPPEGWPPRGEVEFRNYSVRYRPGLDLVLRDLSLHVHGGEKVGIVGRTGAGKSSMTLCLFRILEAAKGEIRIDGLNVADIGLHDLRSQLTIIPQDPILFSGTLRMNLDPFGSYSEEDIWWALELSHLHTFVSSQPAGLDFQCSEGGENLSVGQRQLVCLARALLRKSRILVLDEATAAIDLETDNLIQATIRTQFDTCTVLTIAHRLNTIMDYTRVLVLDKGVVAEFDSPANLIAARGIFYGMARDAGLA
T1 sequence (P08183 whole entry): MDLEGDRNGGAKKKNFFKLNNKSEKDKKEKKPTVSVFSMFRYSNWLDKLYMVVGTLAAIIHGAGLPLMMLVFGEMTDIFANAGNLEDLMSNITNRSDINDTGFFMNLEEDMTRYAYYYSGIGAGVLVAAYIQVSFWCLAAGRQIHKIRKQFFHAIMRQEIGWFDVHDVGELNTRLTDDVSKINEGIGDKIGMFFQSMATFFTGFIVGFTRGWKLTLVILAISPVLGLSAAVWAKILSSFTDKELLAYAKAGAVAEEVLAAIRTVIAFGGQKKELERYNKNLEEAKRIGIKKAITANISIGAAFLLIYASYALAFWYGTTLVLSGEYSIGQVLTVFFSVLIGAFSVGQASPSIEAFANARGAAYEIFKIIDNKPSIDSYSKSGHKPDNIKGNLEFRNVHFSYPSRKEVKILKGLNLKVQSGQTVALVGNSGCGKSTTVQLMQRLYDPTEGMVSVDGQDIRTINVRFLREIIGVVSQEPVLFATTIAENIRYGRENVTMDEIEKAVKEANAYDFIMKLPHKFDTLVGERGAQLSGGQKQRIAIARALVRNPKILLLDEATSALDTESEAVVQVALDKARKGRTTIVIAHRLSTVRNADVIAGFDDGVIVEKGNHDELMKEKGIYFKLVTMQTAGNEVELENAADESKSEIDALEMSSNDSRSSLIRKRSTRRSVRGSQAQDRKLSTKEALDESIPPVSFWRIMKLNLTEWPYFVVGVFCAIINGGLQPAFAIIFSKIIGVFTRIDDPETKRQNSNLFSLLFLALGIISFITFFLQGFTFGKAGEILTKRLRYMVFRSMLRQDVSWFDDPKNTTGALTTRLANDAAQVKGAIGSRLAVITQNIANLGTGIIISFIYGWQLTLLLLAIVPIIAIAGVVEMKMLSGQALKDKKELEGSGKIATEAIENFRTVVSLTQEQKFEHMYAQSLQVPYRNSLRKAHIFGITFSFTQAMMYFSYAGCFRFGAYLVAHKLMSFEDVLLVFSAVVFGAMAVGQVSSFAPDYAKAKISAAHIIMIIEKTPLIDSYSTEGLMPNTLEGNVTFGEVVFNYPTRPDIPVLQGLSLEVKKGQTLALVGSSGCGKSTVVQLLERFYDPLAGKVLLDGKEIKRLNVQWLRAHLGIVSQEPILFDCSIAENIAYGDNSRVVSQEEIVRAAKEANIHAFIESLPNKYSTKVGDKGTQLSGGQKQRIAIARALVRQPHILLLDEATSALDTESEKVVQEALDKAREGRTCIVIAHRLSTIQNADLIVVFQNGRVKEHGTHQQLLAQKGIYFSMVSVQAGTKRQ
T2 sequence (Q92887 whole entry): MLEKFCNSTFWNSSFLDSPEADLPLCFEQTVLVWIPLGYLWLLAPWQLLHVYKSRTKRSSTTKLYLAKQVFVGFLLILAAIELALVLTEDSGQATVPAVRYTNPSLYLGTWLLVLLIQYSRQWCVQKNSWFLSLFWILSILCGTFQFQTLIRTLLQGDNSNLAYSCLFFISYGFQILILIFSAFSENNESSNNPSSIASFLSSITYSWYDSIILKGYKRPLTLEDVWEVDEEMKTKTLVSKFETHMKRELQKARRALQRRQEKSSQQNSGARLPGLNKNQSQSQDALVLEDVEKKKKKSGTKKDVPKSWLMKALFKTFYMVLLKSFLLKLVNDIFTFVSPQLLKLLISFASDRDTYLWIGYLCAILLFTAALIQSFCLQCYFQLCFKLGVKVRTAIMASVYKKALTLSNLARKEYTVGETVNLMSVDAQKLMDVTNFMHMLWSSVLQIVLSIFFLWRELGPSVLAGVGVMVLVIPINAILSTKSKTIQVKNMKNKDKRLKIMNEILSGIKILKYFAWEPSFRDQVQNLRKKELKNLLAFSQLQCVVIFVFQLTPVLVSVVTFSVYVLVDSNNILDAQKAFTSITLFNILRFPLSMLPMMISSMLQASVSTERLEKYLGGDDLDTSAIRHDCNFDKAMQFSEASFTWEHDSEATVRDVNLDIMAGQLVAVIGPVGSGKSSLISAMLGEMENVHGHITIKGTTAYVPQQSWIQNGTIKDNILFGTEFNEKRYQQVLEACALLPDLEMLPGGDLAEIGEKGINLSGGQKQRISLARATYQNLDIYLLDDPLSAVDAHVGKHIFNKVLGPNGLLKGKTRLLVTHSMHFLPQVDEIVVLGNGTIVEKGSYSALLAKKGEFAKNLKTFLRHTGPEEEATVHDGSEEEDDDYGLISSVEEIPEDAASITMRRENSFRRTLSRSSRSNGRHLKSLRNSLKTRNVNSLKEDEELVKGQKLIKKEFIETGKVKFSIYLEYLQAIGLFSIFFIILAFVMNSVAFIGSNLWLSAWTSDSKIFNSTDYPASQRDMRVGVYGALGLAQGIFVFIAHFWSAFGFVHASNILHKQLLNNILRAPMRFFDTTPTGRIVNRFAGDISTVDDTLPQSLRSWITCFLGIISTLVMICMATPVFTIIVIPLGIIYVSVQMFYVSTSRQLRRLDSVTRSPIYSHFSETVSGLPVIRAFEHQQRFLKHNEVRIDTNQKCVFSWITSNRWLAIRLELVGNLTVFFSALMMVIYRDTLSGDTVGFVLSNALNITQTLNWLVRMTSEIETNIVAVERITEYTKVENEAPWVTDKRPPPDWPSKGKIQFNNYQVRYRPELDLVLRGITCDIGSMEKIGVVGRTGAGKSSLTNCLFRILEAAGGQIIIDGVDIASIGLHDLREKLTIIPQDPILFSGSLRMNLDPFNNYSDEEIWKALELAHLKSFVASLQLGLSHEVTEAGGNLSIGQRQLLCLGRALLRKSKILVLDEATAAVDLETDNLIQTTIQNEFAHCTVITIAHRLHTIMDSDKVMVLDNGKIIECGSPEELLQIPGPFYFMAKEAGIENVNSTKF

Q: For `O=C1[C@H](CC[C@H](O)c2ccc(F)cc2)[C@@H](c2ccc(O)cc2)N1c1ccc(F)cc1` [EZE, 1-(4-fluorophenyl)-3(R)-[3-(4-fluorophenyl)-3(S)-hydroxypropyl]-4(S)-(4-hydroxyphenyl)-2-azetidinone, reference compound], which AUC(0-t) [1, 4] is on record?
A: 4610 ± 781 ng·h/mL

Q: And the half-life [1, 4]?
A: 7.67 ± 3.08 h

Q: And the Cmax at 5 min [1, 4]?
A: 2950 ± 571 ng/mL

Q: And the AUC(0-t) [1, 5]?
A: 2180 ± 304 ng·h/mL

Q: And the half-life [1, 5]?
A: 6.76 ± 3.31 h

Q: What about the Cmax at 5 min [1, 5] of the same molecule?
A: 1560 ± 361 ng/mL

Q: And the AUC(0-t) [1, 6]?
A: 189 ± 66 ng·h/mL

Q: And the Cmax [1, 6]?
A: 20.4 ± 8.1 ng/mL

Q: And the Tmax [1, 6]?
A: 5.2 ± 3.9 h

Q: What about the half-life [1, 6] of the same molecule?
A: 12.3 ± 5.3 h

Q: And the AUC(0-t) [1, 7]?
A: 17 ± 10 ng·h/mL

Q: What about the Cmax [1, 7] of the same molecule?
A: 2.63 ± 2.68 ng/mL

Q: And the Tmax [1, 7]?
A: 4.95 ± 4.84 h

Q: And the half-life [1, 7]?
A: 5.56 ± 3.78 h

Q: What about the “AUC0–t, fold higher in CCl4-induced rats than in control rats” value ([1]; intravenous injection of 10 mg/kg EZE) of the same molecule?
A: 2.1 fold

Q: And the “AUC0–t, fold higher in CCl4-induced rats than in control rats” value [1, 8]?
A: 11.1 fold

Q: What about the “share in plasma relative to the main circulating component EZE-Ph” value [1, 8] of the same molecule?
A: 0.4%

Q: And the AUC(0-t) ([2]; femoral vein plasma, CCl4-induced rats, read-out: AUC0–t in femoral vein plasma)?
A: 191 ng·h/mL

Q: And the AUC(0-t) ([2]; femoral vein plasma, control rats, read-out: AUC0–t in femoral vein plasma)?
A: 56.2 ng·h/mL

Q: What about the AUC(0-t) ([2]; portal vein plasma, CCl4-induced rats, read-out: AUC0–t in portal vein plasma) of the same molecule?
A: 352 ng·h/mL

Q: What about the AUC(0-t) ([2]; portal vein plasma, control rats, read-out: AUC0–t in portal vein plasma) of the same molecule?
A: 1850 ng·h/mL

Q: And the “AUC0-t in portal vein, decrease in CCl4-induced rats compared with control rats” value [2]?
A: 81.0%

Q: And the “AUC0–t portal vein plasma vs femoral vein plasma, fold higher” value ([2]; CCl4-induced rats)?
A: 1.84 fold

Q: What about the “AUC0–t portal vein plasma vs femoral vein plasma, fold higher” value ([2]; control rats) of the same molecule?
A: 33.0 fold

Q: And the “time of second absorption peak” value ([2]; control rats)?
A: 9.5 h

Q: And the “increase of residue of EZE in CCl4-induced rats compared with control rats” value (shortened to “increase of residue of EZE”) (UGTs; liver S9, 0.3 μM EZE)?
A: 4.15 fold

Q: And the “increase of residue of EZE” value (UGTs; liver S9, 3 μM EZE)?
A: 5.00 fold

Q: And the “increase of residue of EZE” value (UGTs; liver S9, 30 μM EZE)?
A: 1.40 fold

Q: What about the “temperature dependence of uptake into isolated rat hepatocytes” value (rat primary hepatocytes) of the same molecule?
A: independent of temperature

Q: What about the “ATP-dependent transport via MDR1 membrane vesicles” value (MDR1) of the same molecule?
A: No significant ATP-dependent transport

Q: What about the “ATP-dependent transport via MRP2 membrane vesicles” value (MRP2) of the same molecule?
A: No significant ATP-dependent transport

Q: What about the “ATP-dependent transport via MRP3 membrane vesicles” value (MRP3) of the same molecule?
A: No significant ATP-dependent transport

Q: And the “Autosampler stability (4°C, 24 h), RE” value ([3]; HQC (800/2400/800 ng/ml))?
A: 3.9%

Q: What about the “Post-extraction stability (room temperature 3 h), RE” value ([3]; HQC (800/2400/800 ng/ml)) of the same molecule?
A: 3.9%

Q: What about the “Autosampler stability (4°C, 24 h), RE” value ([3]; LQC (3.00/9.00/3.00 ng/ml)) of the same molecule?
A: 0.6%

Q: And the “Post-extraction stability (room temperature 3 h), RE” value ([3]; LQC (3.00/9.00/3.00 ng/ml))?
A: 0.7%

Q: And the “stability in rat plasma under the test conditions” value ([3]; LQC and HQC samples, short-term, post-extraction, auto-sampler, three freeze/thaw cycles)?
A: stable

Q: And the “Freeze-thaw stability (−20°C, three cycles), RE” value ([3]; HQC (800/2400/800 ng/ml))?
A: 1.1%

Q: And the “Short-term stability (room temperature 3 h), RE” value ([3]; HQC (800/2400/800 ng/ml))?
A: -5.6%

Q: What about the “Freeze-thaw stability (−20°C, three cycles), RE” value ([3]; LQC (3.00/9.00/3.00 ng/ml)) of the same molecule?
A: -1.0%

Q: What about the “Short-term stability (room temperature 3 h), RE” value ([3]; LQC (EZE/EZE-Ph/EZE-Hy 3.00/9.00/3.00 ng/ml)) of the same molecule?
A: -11.2%

Q: What about the stability in blood ([3]; room temperature for 2 h) of the same molecule?
A: stable
